For 24 compounds, T/C results are on record in PubChem BioAssay AID330 (DTP/NCI, 2004).

The structures appear in SMILES notation. “And” between values parts separate entries of the source, which are not always exact repeats. Equal values may be shown once. Toxic doses and inconclusive results are not listed.

The experiment concerns P388 leukemia ip, CD2F1 mice, survival T/C. In words: NCI In Vivo Anticancer Drug Screen. Data for tumor model P388 Leukemia (intraperitoneal) in CD2F1 (CDF1) mice. Particulars: endpoint: median survival time, higher = longer survival. Summed up:
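Mice carrying the transplanted tumor received test compound or vehicle. Survival was recorded in each group, and the value is the treated-group measurement divided by that of the vehicle-treated control group.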

[1] abbreviates: dose: 50.0 mg/kg/injection, schedule: Q01DX005 (ip), vehicle: saline with Tween-80.
Where [2] appears, read: dose: 100.0 mg/kg/injection, schedule: Q01DX005 (ip), vehicle: saline with Tween-80.
Where [3] appears, read: dose: 200.0 mg/kg/injection, schedule: Q01DX005 (ip), vehicle: saline with Tween-80.
Where [4] appears, read: dose: 60.0 mg/kg/injection, schedule: Q01DX005 (ip), vehicle: saline with Tween-80.
Where [5] appears, read: dose: 120.0 mg/kg/injection, schedule: Q01DX005 (ip), vehicle: saline with Tween-80.
The mark [6] stands for this setting: dose: 6.25 mg/kg/injection, schedule: Q01DX005 (ip), vehicle: Klucel (hydroxypropylcellulose) (HPC).
Where [7] appears, read: dose: 50.0 mg/kg/injection, schedule: Q01DX009 (ip), vehicle: Klucel (hydroxypropylcellulose) (HPC).
Setting [8] is: dose: 200.0 mg/kg/injection, schedule: Q01DX009 (ip), vehicle: Klucel (hydroxypropylcellulose) (HPC).
Setting [9] is: dose: 240.0 mg/kg/injection, schedule: Q01DX005 (ip), vehicle: saline with Tween-80.
The mark [10] stands for this setting: dose: 6.25 mg/kg/injection, schedule: Q01DX009 (ip), vehicle: water.
The mark [11] stands for this setting: dose: 12.5 mg/kg/injection, schedule: Q01DX009 (ip), vehicle: water.
Where [12] appears, read: dose: 25.0 mg/kg/injection, schedule: Q01DX009 (ip), vehicle: water.
Where [13] appears, read: dose: 50.0 mg/kg/injection, schedule: Q01DX005 (ip), vehicle: Klucel (hydroxypropylcellulose) (HPC).
The mark [14] stands for this setting: dose: 100.0 mg/kg/injection, schedule: Q01DX005 (ip), vehicle: Klucel (hydroxypropylcellulose) (HPC).

Regarding `O=C(Nc1ccccc1)OC(CS(=O)(=O)c1ccccc1)C(Cl)(Cl)Cl` (stereo not drawn), the T/C is 92 % of control under setting [1], 96 % of control under setting [2] and 95 % of control under setting [3].
On to `O=C(O)c1ccc(N=NC2Sc3nc4ccccc4n3C2=O)cc1` (stereo not drawn), for which the T/C (dose: 60.0 mg/kg/injection, schedule: Q01DX005 (ip), vehicle: Klucel (hydroxypropylcellulose) (HPC)) is 92 % of control and the T/C (dose: 120.0 mg/kg/injection, schedule: Q01DX005 (ip), vehicle: Klucel (hydroxypropylcellulose) (HPC)) is 91 % of control.
Turning to `O=c1nc2n(c3ncccc13)CC=NN2`, the T/C reads like this: under setting [4], 99 % of control; under setting [5], 100 % of control.
In the case of `O=C(OCc1ccccc1)C(Cc1ccccc1)NC(=O)C(Cc1ccc(O)cc1)N(C(=O)OCc1ccccc1)C(=O)OCc1ccccc1` (stereo not drawn), the T/C under setting [1] was 103 % of control, the T/C under setting [2] was 100 % of control and the T/C under setting [3] is 91 % of control.
For `Cc1cc(=O)c2c(=O)[nH][nH]c2[nH]1`, the T/C reads like this: (dose: 50.0 mg/kg/injection, schedule: Q04DX003 (ip), vehicle: saline with Tween-80) 100 % of control; (dose: 100.0 mg/kg/injection, schedule: Q04DX003 (ip), vehicle: saline with Tween-80) 90 % of control; (dose: 200.0 mg/kg/injection, schedule: Q04DX003 (ip), vehicle: saline with Tween-80) 90 % of control.
As for `CCOc1ccc(/C=N/NC(=O)C(=O)N/N=C/c2ccc(OCC)c(OCC)c2)cc1OCC`, the T/C runs as follows: under setting [6], 102 % of control and 95 % of control and 96 % of control; under setting [7], 90 % of control; under setting [8], 92 % of control.
Regarding `COc1ccc(C(c2cc3c(cc2O)OCO3)N2CCN(C(c3ccc(OC)c(O)c3)c3cc4c(cc3O)OCO4)CC2)cc1O` (stereo not drawn), the T/C is, setting by setting: under setting [4], 96 % of control; under setting [5], 101 % of control; under setting [9], 112 % of control.
In the case of `C[CH2][Sn]([CH2]C)([S]c1nc(O)cc(=O)[nH]1)[S]c1nc(O)cc(=O)[nH]1`, the T/C is 107 % of control (dose: 1.56 mg/kg/injection, schedule: Q01DX005 (ip), vehicle: Klucel (hydroxypropylcellulose) (HPC)); 113 % of control and 119 % of control (dose: 3.12 mg/kg/injection, schedule: Q01DX005 (ip), vehicle: Klucel (hydroxypropylcellulose) (HPC)); 118 % of control under setting [6].
With `O=NNc1ncccn1`, the T/C is, setting by setting: (dose: 3.12 mg/kg/injection, schedule: Q01DX009 (ip), vehicle: water) 96 % of control; under setting [10], 105 % of control; under setting [11], 93 % of control; under setting [12], 101 % of control; (dose: 50.0 mg/kg/injection, schedule: Q01DX009 (ip), vehicle: water) 102 % of control; (dose: 100.0 mg/kg/injection, schedule: Q01DX009 (ip), vehicle: water) 93 % of control.
With `CCN(CC)CCCNc1ccc(C)c2sc3ccccc3c(=O)c12`, the T/C (dose: 12.5 mg/kg/injection, schedule: Q01DX005 (ip), vehicle: saline) was 100 % of control; the T/C (dose: 25.0 mg/kg/injection, schedule: Q01DX005 (ip), vehicle: saline) was 109 % of control; the T/C (dose: 50.0 mg/kg/injection, schedule: Q01DX005 (ip), vehicle: saline) was 99 % of control and 114 % of control.
`N/C(=N\OC(=O)Nc1ccc(CSc2ccc(Cl)cc2)o1)c1ccccn1`: the T/C (dose: 12.5 mg/kg/injection, schedule: Q01DX005 (ip), vehicle: Klucel (hydroxypropylcellulose) (HPC)) was 106 % of control and 109 % of control; the T/C (dose: 25.0 mg/kg/injection, schedule: Q01DX005 (ip), vehicle: Klucel (hydroxypropylcellulose) (HPC)) was 107 % of control and 110 % of control; the T/C under setting [13] was 110 % of control and 114 % of control and 120 % of control; the T/C under setting [14] was 109 % of control and 111 % of control.
For `Cc1ccnc(Nc2nnc(Nc3cc(C)ccn3)c3ccccc23)c1`, the T/C by setting is: under setting [1], 100 % of control; under setting [2], 97 % of control; under setting [3], 97 % of control.
As for `CCCCCN(CCCCC)CC(O)CN1CCCc2ccccc21` (stereo not drawn), the T/C is, setting by setting: under setting [1], 102 % of control; under setting [2], 111 % of control; under setting [3], 112 % of control.
As to `NC(=O)Nc1ccc(Cc2ccc(NC(N)=O)cc2)cc1`, the T/C is 94 % of control under setting [7]; 94 % of control (dose: 100.0 mg/kg/injection, schedule: Q01DX009 (ip), vehicle: Klucel (hydroxypropylcellulose) (HPC)); 91 % of control under setting [8].
On to `CCOC(=O)C(N=Nc1nn[nH]n1)c1ncn[nH]1` (stereo not drawn), for which the T/C runs as follows: (dose: 50.0 mg/kg/injection, schedule: Q01DX001 (ip), vehicle: Klucel (hydroxypropylcellulose) (HPC)) 98 % of control; (dose: 100.0 mg/kg/injection, schedule: Q01DX001 (ip), vehicle: Klucel (hydroxypropylcellulose) (HPC)) 98 % of control; (dose: 200.0 mg/kg/injection, schedule: Q01DX001 (ip), vehicle: Klucel (hydroxypropylcellulose) (HPC)) 91 % of control.
As to `Cc1ccc(NC(=O)C(=O)C(C#N)c2c(Cl)cccc2Cl)c(C)c1` (stereo not drawn), the T/C runs as follows: under setting [1], 102 % of control; under setting [2], 105 % of control; under setting [3], 105 % of control.
As for `COc1ccc2c(c1O)C13CCN(C)[C@@H](C2)C12CC2/C(=N/O)[C@H]3OC(C)=O` (stereo partly drawn), the T/C under setting [13] is 92 % of control and the T/C under setting [14] is 97 % of control.
Turning to `CCOC(=O)CC1=NN=C(N)SC1`, the T/C was 100 % of control (dose: 12.5 mg/kg/injection, schedule: Q01DX009 (ip), vehicle: saline); 101 % of control and 103 % of control (dose: 25.0 mg/kg/injection, schedule: Q01DX009 (ip), vehicle: saline); 101 % of control and 106 % of control (dose: 50.0 mg/kg/injection, schedule: Q01DX009 (ip), vehicle: saline); 93 % of control and 97 % of control (dose: 100.0 mg/kg/injection, schedule: Q01DX009 (ip), vehicle: saline); 87 % of control (dose: 200.0 mg/kg/injection, schedule: Q01DX009 (ip), vehicle: saline).
`Brc1ccc(COC2C[C@]34CC=CC[C@@]3(C2)O4)cc1` (stereo partly drawn): the T/C was 105 % of control under setting [13]; 103 % of control under setting [14]; 105 % of control (dose: 200.0 mg/kg/injection, schedule: Q01DX005 (ip), vehicle: Klucel (hydroxypropylcellulose) (HPC)).
In the case of `O=C1/C(=C\c2ccc3c(c2)OCO3)SC(=S)N1CCCN1CCOCC1`, the T/C is 92 % of control under setting [1], 90 % of control under setting [2] and 93 % of control under setting [3].
Regarding `CCOC(=O)N1c2ccccc2N(C(=O)OCC)C1C#N`, the T/C is 97 % of control under setting [4], 96 % of control under setting [5] and 87 % of control under setting [9].
As to `COc1cc(C=Nc2cc(Br)cc(Br)c2)ccc1N(CCCl)CCCl`, the T/C by setting is: (dose: 0.44 mg/kg/injection, schedule: Q01DX009 (ip), vehicle: saline with Tween-80) 120 % of control; (dose: 0.66 mg/kg/injection, schedule: Q01DX009 (ip), vehicle: saline with Tween-80) 105 % of control; (dose: 1.5 mg/kg/injection, schedule: Q01DX009 (ip), vehicle: saline with Tween-80) 170 % of control; (dose: 2.25 mg/kg/injection, schedule: Q04DX003 (ip), vehicle: other) 111 % of control; (dose: 2.5 mg/kg/injection, schedule: Q01DX009 (ip), vehicle: saline with Tween-80) 165 % of control; (dose: 5.0 mg/kg/injection, schedule: Q01DX009 (ip), vehicle: saline with Tween-80) 170 % of control. The T/C reads like this: (dose: 9.0 mg/kg/injection, schedule: Q04DX003 (ip), vehicle: other) 165 % of control; (dose: 10.0 mg/kg/injection, schedule: Q01DX009 (ip), vehicle: saline with Tween-80) 110 % of control; (dose: 18.0 mg/kg/injection, schedule: Q04DX003 (ip), vehicle: other) 223 % of control.
Take `C=C1C(=O)O[C@H]2C[C@H]3O[C@H]3[C@@H]12`: the T/C was 100 % of control (dose: 1.56 mg/kg/injection, schedule: Q01DX009 (ip), vehicle: water); 99 % of control (dose: 3.13 mg/kg/injection, schedule: Q01DX009 (ip), vehicle: water); 98 % of control under setting [10]; 101 % of control under setting [11]; 107 % of control under setting [12].
For `Cc1cc[n+](C2=C(Nc3ccc(Cl)cc3Cl)C(=O)c3ccccc3C2=O)cc1`, the T/C was 99 % of control under setting [4], 106 % of control under setting [5] and 108 % of control under setting [9].
